Data from patent US20220202884A1 (SENECA THERAPEUTICS, INC., priority 2019, published 2022).
Structures can show the parent of a compound that is named as a salt.

How the values were obtained:
[1] = system: HTB-126 cells (triple negative breast cancer, TNBC); test: Seneca Valley Virus (SVV) mediated killing of drug-pretreated HTB-126 cells; type: cell-based
From the text: Standard deviations of replicates are presented as error bars (VP/cell with 1 PFU or TCID50 unit per 100 VPs).
(§1) In certain instances, infection with Seneca Valley Virus can be toxic to triple negative breast cancer cell lines. In these cases, it is necessary to reduce innate antiviral responses through the use of certain approved pharmaceutical compounds (see FIG. 1, FIG. 2 and FIG. 5).

[2] = system: triple negative breast cancer cells (BT-549); test: SVV infection, replication and killing of drug-treated BT-549 cells; type: cell-based; settings: FIG. 2
From the text: as §1

[3] = system: U2OS cells (osteosarcoma); test: SVV mediated killing of drug-pretreated U2OS cells; type: cell-based; settings: U2OS cells pretreated for 24 hours with compound, FIG. 3
Procedure: U2OS cells (osteosarcoma) were pretreated for 24 hours in pharmaceutical compounds to disrupt innate antiviral responses to allow increased viral mediated killing.

[4] = system: HCT-116 cells (Colorectal cancer cells); test: SVV mediated killing of drug-pretreated HCT-116 cells; type: cell-based, human; settings: HCT-116 cells pretreated for 24 hours with compound, FIG. 4
Procedure: HCT-116 cells (Colorectal cancer cells) were pretreated for 24 hours in pharmaceutical compounds to disrupt innate antiviral responses to allow increased viral mediated killing.

Row | Structure (SMILES) | enhancement of SVV replication and cell death ([1]; FIG. 5, TNBC cell lines, 1PFU/cell of SVV and 0.8 uM of Tofacintinib) | susceptibility to virus mediated killing by SVV ([1]; HTB-126 cells, FIG. 1 (pretreated 24 hours in 12.5 micromolar tofacitinib, then 50 VP of SVV/cell) and FIG. 5) | susceptibility to virus mediated killing by SVV [2] | Seneca Valley Virus mediated cell killing [3] | Seneca Valley Virus mediated cell killing ([3]; listed as tofacitinib) | Seneca Valley Virus mediated cell killing [4] | Seneca Valley Virus mediated cell killing ([4]; listed as tofacitnib) | Seneca Valley Virus mediated cell killing ([4]; listed as dimethyl fumarate) | Seneca Valley Virus mediated cell killing ([4]; listed as vorinostat)
1 | C[C@@H]1CCN(C(=O)CC#N)C[C@@H]1N(C)c1ncnc2[nH]ccc12 [Tofacitinib] | substantial enhancement of SVV replication in TNBC cell lines and cell death | modified and favored the susceptibility to virus mediated killing by SVV | modified and favored the susceptibility to virus mediated killing by SVV | augmented SVV mediated cell killing | increased Seneca Valley Virus mediated cell killing | mainly caused by MAC inhibitors (Panobinostat or Vorinostat) instead of the JAK inhibitors | smaller effect | – | –
2 | COC(=O)/C=C/C(=O)OC [Dimethyl fumarate, dimethyl fumarate] | – | – | – | increased Seneca Valley Virus mediated cell killing | – | mainly caused by MAC inhibitors (Panobinostat or Vorinostat) instead of the JAK inhibitors | – | smaller effect | –
3 | O=C(CCCCCCC(=O)Nc1ccccc1)NO [Vorinostat] | – | – | modified and favored the susceptibility to virus mediated killing by SVV | – | – | increase in cell killing was mainly caused by MAC inhibitors | – | – | increased Seneca Valley Virus mediated cell killing
